According to patent US20240101531A1, “PYRIDINAMINE DERIVATIVES AND THEIR USE AS POTASSIUM CHANNEL MODULATORS” (Xenon Pharmaceuticals Inc., priority 2022, published 2024):
Structures can show the parent of a compound that is named as a salt.

Biological target: human KV7.2/KV7.3 (Homo sapiens (Human), UniProt O43525+O43526)
Experiment: Potassium flux assay (IPG-2 AM dye)
Format: cell-based
Settings: TREX HEK 293 or HEK 293 cells expressing human KV7.2/KV7.3; arithmetic mean values
Method in brief: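 HEK 293 or TREX HEK 293 cells stably expressing human KV7.2/KV7.3 (tetracycline-induced where needed), loaded with IPG-2 AM, then compound for 20 min at room temperature. Flux triggered by K challenge buffer (10 mM KCl, pH 7.4), read at 530/558 nm; EC50 from 16-point 2-fold series from 30 μM, normalised to DMSO and reference modulator.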

Question: With `COc1cc(Nc2nccc3cc(OCC4(C)COC4)ccc23)cnc1Cl` [Example 36, N-(6-chloro-5-methoxypyridin-3-yl)-6-((3-methyloxetan-3-yl)methoxy)isoquinolin-1-amine] as the molecule, how does the EC50 read?
Answer: < 1000 nM

Question: `Clc1ccc(Nc2nccc3cc(OCc4cnn5c4CCC5)ccc23)cn1` [Example 281, N-(6-chloropyridin-3-yl)-6-((5,6-dihydro-4H-pyrrolo[1,2-b]pyrazol-3-yl)methoxy)isoquinolin-1-amine] was tested. Which EC50 did it give?
Answer: 10000 to 30000 nM

Question: For `Clc1ccc(Nc2nccc3cc(Cn4nccn4)ccc23)cn1` [Example 425, 6-((2H-1,2,3-triazol-2-yl)methyl)-N-(6-chloropyridin-3-yl)isoquinolin-1-amine], which EC50 is on record?
Answer: 1000 to 10000 nM

Question: For `Cc1c(COc2ccc3c(Nc4cnc(Cl)nc4)nccc3c2)cnn1C` [Example 352, N-(2-chloropyrimidin-5-yl)-6-((1,5-dimethyl-1H-pyrazol-4-yl)methoxy)isoquinolin-1-amine], which EC50 is on record?
Answer: < 1000 nM

Question: How did the EC50 turn out when `N#C[C@H]1CCC[C@@H](Oc2ccc3c(Nc4ccc(Cl)nc4)nccc3c2)C1` [Example 345, (1 S,3R)-3-((1-((6-chloropyridin-3-yl)amino)isoquinolin-6-yl)oxy)cyclohexane-1-carbonitrile] was run?
Answer: 1000 to 10000 nM

Question: For `Cc1ccc(Nc2nccc3cc(OCC4CC4)cnc23)cn1` [Example 256, 3-(cyclopropylmethoxy)-N-(6-methylpyridin-3-yl)-1,7-naphthyridin-8-amine], which EC50 is on record?
Answer: 1000 to 10000 nM

Question: For `C#CC1(COc2ccc3c(Nc4ccc(Cl)nc4)nccc3c2)CC1` [Example 151, N-(6-chloropyridin-3-yl)-6-((1-ethynylcyclopropyl)methoxy)isoquinolin-1-amine], which EC50 is on record?
Answer: < 1000 nM

Question: With `FC1(COc2ccc3c(Nc4ccc(Cl)nc4)nccc3c2)CCOC1` (stereo not shown) [Example 363, N-(6-chloropyridin-3-yl)-6-((3-fluorotetrahydrofuran-3-yl)methoxy)isoquinolin-1-amine] as the molecule, how does the EC50 read?
Answer: < 1000 nM

Question: Which EC50 does the source give for `Clc1ccc(Nc2nccc3cc(OC4CC5(COC5)C4)ccc23)cn1` [Example 113, 6-((2-oxaspiro[3.3]heptan-6-yl)oxy)-N-(6-chloropyridin-3-yl)isoquinolin-1-amine] here?
Answer: < 1000 nM

Question: `Cc1cc(COc2ccc3c(Nc4ccc(Cl)nc4)nccc3c2)n[nH]1` [Example 392, N-(6-chloropyridin-3-yl)-6-((5-methyl-1H-pyrazol-3-yl)methoxy)isoquinolin-1-amine] was tested. Which EC50 did it give?
Answer: 1000 to 10000 nM

Question: Which EC50 does the source give for `Cc1nn(C)cc1COc1ccc2c(Nc3ccc(Cl)nc3)nccc2c1` [Example 165, N-(6-chloropyridin-3-yl)-6-((1,3-dimethyl-1H-pyrazol-4-yl)methoxy)isoquinolin-1-amine] here?
Answer: < 1000 nM

Question: Which EC50 does the source give for `C[C@@]1(O)CCC[C@H](Oc2ccc3c(Nc4ccc(Cl)nc4)nccc3c2)C1` [Example 149, (1R,3S)-3-((1-((6-chloropyridin-3-yl)amino)isoquinolin-6-yl)oxy)-1-methylcyclohexan-1-ol] here?
Answer: < 1000 nM

Question: Which EC50 does the source give for `OCC(F)(F)COc1ccc2c(Nc3ccc(Cl)nc3)nccc2c1` [Example 155, 3-((1-((6-chloropyridin-3-yl)amino)isoquinolin-6-yl)oxy)-2,2-difluoropropan-1-ol] here?
Answer: 1000 to 10000 nM

Question: `Cc1ncc(Nc2nccc3cc(OCC4CC4)cnc23)cn1` [Example 257, 3-(cyclopropylmethoxy)-N-(2-methylpyrimidin-5-yl)-1,7-naphthyridin-8-amine] was tested. Which EC50 did it give?
Answer: 1000 to 10000 nM

Question: How did the EC50 turn out when `FC1(COc2ccc3c(Nc4ccc(Cl)nc4)nccc3c2)CCC1` [Example 141, N-(6-chloropyridin-3-yl)-6-((1-fluorocyclobutyl)methoxy)isoquinolin-1-amine] was run?
Answer: 1000 to 10000 nM

Question: How did the EC50 turn out when `Clc1ccc(Nc2nccc3cc(NCC4CC4)ccc23)cn1` [Example 230, N^1-(6-chloropyridin-3-yl)-N^6-(cyclopropylmethyl)isoquinoline-1,6-diamine formate] was run?
Answer: 10000 to 30000 nM

Question: How did the EC50 turn out when `Clc1ccc(Nc2nccc3cc(-c4cncnc4)ccc23)cn1` [Example 423, N-(6-chloropyridin-3-yl)-6-(pyrimidin-5-yl)isoquinolin-1-amine] was run?
Answer: 10000 to 30000 nM

Question: Which EC50 does the source give for `COC1(COc2ccc3c(Nc4ccc(Cl)nc4)nccc3c2)COC1` [Example 220, N-(6-chloropyridin-3-yl)-6-((3-methoxyoxetan-3-yl)methoxy)isoquinolin-1-amine] here?
Answer: < 1000 nM

Question: For `Clc1ccc(Nc2nccc3cc(OCc4ccno4)ccc23)cn1` [Example 157, N-(6-chloropyridin-3-yl)-6-(isoxazol-5-ylmethoxy)isoquinolin-1-amine], which EC50 is on record?
Answer: < 1000 nM

Question: With `C[C@@](O)(COc1ccc2c(Nc3ccc(Cl)nc3)nccc2c1)C(F)(F)F` [Example 224, (R)-3-((1-((6-chloropyridin-3-yl)amino)isoquinolin-6-yl)oxy)-1,1,1-trifluoro-2-methylpropan-2-ol] as the molecule, how does the EC50 read?
Answer: < 1000 nM

Question: For `Clc1ccc(Nc2nccc3cc(OCC4CC5(CCO5)C4)ccc23)cn1` (stereo not shown) [Example 114, 6-((1-oxaspiro[3.3]heptan-6-yl)methoxy)-N-(6-chloropyridin-3-yl)isoquinolin-1-amine], which EC50 is on record?
Answer: < 1000 nM

Question: Which EC50 does the source give for `CO[C@@H]1CCC[C@H](Oc2ccc3c(Nc4cnc(Cl)nc4)nccc3c2)C1` (racemic) [Example 360, cis-N-(2-chloropyrimidin-5-yl)-6-(((1S,3R)-3-methoxycyclohexyl)oxy)isoquinolin-1-amine] here?
Answer: < 1000 nM

Question: How did the EC50 turn out when `Cc1ncc(Nc2nccc3cc(OCCOC4CC4)ccc23)cn1` [Example 38, 6-(2-cyclopropoxyethoxy)-N-(2-methylpyrimidin-5-yl)isoquinolin-1-amine] was run?
Answer: 10000 to 30000 nM

Question: For `Clc1ccc(Nc2nccc3cc(OC4CCN(C5COC5)CC4)ccc23)cn1` [Example 313, N-(6-chloropyridin-3-yl)-6-((1-(oxetan-3-yl)piperidin-4-yl)oxy)isoquinolin-1-amine], which EC50 is on record?
Answer: 1000 to 10000 nM

Question: Which EC50 does the source give for `Clc1ccc(Nc2nccc3cc(OCc4ncccn4)ccc23)cn1` [Example 193, N-(6-chloropyridin-3-yl)-6-(pyrimidin-2-ylmethoxy)isoquinolin-1-amine] here?
Answer: 1000 to 10000 nM

Question: Which EC50 does the source give for `Cc1ncc(Nc2nccc3cc(OCC4(C#N)CC4)ccc23)cn1` [Example 88, 1-(((1-((2-methylpyrimidin-5-yl)amino)isoquinolin-6-yl)oxy)methyl)cyclopropane-1-carbonitrile] here?
Answer: 1000 to 10000 nM

Question: `FC1CN(CCOc2ccc3c(Nc4ccc(Cl)nc4)nccc3c2)C1` [Example 116, N-(6-chloropyridin-3-yl)-6-(2-(3-fluoroazetidin-1-yl)ethoxy)isoquinolin-1-amine] was tested. Which EC50 did it give?
Answer: 1000 to 10000 nM

Question: How did the EC50 turn out when `N#CC1(COc2ccc3c(Nc4cnc(Cl)nc4)nccc3c2)CCC1` [Example 369, 1-(((1-((2-chloropyrimidin-5-yl)amino)isoquinolin-6-yl)oxy)methyl)cyclobutane-1-carbonitrile] was run?
Answer: < 1000 nM

Question: Which EC50 does the source give for `Fc1cc2c(Nc3ccc(Cl)nc3)nccc2cc1OCC1(F)CC1` [Example 247, N-(6-chloropyridin-3-yl)-7-fluoro-6-((1-fluorocyclopropyl)methoxy)isoquinolin-1-amine] here?
Answer: 10000 to 30000 nM

Question: `FC1(F)CC(COc2ccc3c(Nc4ccc(Cl)nc4)nccc3c2)C1` [Example 407, N-(6-chloropyridin-3-yl)-6-((3,3-difluorocyclobutyl)methoxy)isoquinolin-1-amine] was tested. Which EC50 did it give?
Answer: 1000 to 10000 nM

Question: Which EC50 does the source give for `N=[S@]1(=O)CCC[C@@H](COc2ccc3c(Nc4cnc(Cl)nc4)nccc3c2)C1` (relative stereo) [Example 366, cis-3-(((1-((2-chloropyrimidin-5-yl)amino)isoquinolin-6-yl)oxy)methyl)-1-iminohexahydro-1λ^6-thiopyran 1-oxide] here?
Answer: 1000 to 10000 nM
